This note sets out measurements from patent publication US8541418B2, “Inhibitors of polo-like kinase” (Elan Pharmaceutical, Inc., priority 2009, dated 2013).

A word on the IC50: it is the concentration at which inhibition is half-maximal. As a reminder, the inhibition is the drop in the measured response relative to a control, in per cent.

Where two headings read alike, the source gives them in different places.

Assay [1] deals with PLK3 (Homo sapiens, UniProt Q9H4B4). Put plainly: PLK TR-FRET peptide assay, PLK3. The assay is classed as biochemical. On the technique in general: TR-FRET usually uses a lanthanide donor and a delayed reading to cut background.
The target of assay [2] is T1, PLK2 (Homo sapiens, UniProt Q9NYY3). Put plainly: PLK TR-FRET peptide assay, PLK2. The assay is classed as biochemical. As to conditions: for IC50: PLK TR-FRET peptide assay, read-out: Plk2 IC50.
Assay [3] concerns the target T2, PLK1 (Homo sapiens, UniProt P53350). In words: PLK TR-FRET peptide assay, PLK1. The format is biochemical.
In assay [4] the target is T2, PLK1. In words: Kinase panel screening at InVitrogen, PLK1. To be noted: 10 μM compound.
The target in assay [5] is T1, PLK2. In words: Kinase panel screening at InVitrogen, PLK2. To be noted: 10 μM compound.
Assay [6] concerns the target KDR (Homo sapiens, UniProt P35968). Put plainly: Kinase panel screening and titration, KDR. As to conditions: read-out: inhibition of KDR.
Assay [7] relates to over 300 kinases, including CDK-1, CDK-2, CDK-5, CLK-1, CLK-2, CLK-3, CLK-4, NEK-1, NEK-2, NEK-4, NEK-6, NEK-7, MAP4K4 and STK16. In words: Kinase panel screening at InVitrogen, over 300 kinases. To be noted: 10 μM compound; all but 21 of the kinases, including CDK-1, CDK-2, CDK-5, CLK-1 to CLK-4, NEK-1, -2, -4, -6, -7, MAP4K4, STK16.
Assay [8] addresses ABL1 (Homo sapiens, UniProt P00519). Put plainly: Kinase panel screening and titration, ABL1. As to conditions: read-out: inhibition of ABL1.
Where [9] appears, read: GST-PLK3, 15 min reaction, read-out: Plk3 IC50.

T2 sequence (P53350 whole entry): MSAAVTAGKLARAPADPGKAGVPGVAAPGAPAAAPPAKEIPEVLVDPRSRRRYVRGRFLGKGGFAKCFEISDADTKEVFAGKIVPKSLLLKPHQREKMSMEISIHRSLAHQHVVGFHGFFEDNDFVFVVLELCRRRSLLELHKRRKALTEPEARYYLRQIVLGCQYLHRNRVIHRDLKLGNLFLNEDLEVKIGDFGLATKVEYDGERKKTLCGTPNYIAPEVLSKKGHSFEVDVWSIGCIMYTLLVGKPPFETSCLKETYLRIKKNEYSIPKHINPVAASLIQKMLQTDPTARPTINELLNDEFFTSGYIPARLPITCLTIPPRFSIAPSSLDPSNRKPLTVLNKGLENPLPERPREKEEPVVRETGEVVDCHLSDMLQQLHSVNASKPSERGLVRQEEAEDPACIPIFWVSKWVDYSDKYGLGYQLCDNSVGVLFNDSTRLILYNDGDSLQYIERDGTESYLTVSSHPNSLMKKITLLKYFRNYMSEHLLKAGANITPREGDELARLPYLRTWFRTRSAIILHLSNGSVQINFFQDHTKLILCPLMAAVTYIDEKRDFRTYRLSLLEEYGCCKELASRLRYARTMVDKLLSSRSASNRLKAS
Sequence of PLK3 (Q9H4B4 whole entry): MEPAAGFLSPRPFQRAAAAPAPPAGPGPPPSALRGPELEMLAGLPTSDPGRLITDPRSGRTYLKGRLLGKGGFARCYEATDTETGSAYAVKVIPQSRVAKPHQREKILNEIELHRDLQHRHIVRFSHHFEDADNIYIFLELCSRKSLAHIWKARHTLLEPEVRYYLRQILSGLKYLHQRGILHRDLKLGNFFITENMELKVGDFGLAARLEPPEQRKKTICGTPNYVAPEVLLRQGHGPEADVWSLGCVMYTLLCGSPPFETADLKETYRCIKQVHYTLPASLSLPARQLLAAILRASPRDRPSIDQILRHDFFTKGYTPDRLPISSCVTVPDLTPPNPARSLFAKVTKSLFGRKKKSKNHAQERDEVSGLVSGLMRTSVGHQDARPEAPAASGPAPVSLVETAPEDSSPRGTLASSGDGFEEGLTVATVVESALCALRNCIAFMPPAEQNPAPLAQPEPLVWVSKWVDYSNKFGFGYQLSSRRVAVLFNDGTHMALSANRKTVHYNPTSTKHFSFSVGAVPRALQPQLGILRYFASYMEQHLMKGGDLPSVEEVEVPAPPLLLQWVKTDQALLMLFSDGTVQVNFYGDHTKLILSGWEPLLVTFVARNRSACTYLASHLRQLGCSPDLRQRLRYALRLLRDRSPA
T1 sequence (Q9NYY3 whole entry): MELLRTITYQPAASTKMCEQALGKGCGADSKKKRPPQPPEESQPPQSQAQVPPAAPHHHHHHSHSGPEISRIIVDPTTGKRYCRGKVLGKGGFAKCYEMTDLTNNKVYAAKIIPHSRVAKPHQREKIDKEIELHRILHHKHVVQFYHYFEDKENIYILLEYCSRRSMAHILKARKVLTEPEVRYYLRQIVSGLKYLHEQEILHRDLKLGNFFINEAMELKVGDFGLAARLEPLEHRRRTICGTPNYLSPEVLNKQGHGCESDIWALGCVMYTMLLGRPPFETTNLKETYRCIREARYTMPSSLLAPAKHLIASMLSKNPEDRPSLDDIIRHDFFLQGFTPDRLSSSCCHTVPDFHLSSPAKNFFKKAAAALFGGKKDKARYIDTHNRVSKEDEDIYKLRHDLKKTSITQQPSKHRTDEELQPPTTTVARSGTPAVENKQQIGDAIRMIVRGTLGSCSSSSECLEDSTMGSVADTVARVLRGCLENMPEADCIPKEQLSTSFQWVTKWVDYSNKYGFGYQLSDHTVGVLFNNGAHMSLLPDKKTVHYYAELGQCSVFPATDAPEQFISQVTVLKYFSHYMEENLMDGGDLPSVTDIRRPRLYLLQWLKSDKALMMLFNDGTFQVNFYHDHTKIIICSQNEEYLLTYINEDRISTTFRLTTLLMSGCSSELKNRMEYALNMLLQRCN
Sequence of ABL1 (P00519 whole entry): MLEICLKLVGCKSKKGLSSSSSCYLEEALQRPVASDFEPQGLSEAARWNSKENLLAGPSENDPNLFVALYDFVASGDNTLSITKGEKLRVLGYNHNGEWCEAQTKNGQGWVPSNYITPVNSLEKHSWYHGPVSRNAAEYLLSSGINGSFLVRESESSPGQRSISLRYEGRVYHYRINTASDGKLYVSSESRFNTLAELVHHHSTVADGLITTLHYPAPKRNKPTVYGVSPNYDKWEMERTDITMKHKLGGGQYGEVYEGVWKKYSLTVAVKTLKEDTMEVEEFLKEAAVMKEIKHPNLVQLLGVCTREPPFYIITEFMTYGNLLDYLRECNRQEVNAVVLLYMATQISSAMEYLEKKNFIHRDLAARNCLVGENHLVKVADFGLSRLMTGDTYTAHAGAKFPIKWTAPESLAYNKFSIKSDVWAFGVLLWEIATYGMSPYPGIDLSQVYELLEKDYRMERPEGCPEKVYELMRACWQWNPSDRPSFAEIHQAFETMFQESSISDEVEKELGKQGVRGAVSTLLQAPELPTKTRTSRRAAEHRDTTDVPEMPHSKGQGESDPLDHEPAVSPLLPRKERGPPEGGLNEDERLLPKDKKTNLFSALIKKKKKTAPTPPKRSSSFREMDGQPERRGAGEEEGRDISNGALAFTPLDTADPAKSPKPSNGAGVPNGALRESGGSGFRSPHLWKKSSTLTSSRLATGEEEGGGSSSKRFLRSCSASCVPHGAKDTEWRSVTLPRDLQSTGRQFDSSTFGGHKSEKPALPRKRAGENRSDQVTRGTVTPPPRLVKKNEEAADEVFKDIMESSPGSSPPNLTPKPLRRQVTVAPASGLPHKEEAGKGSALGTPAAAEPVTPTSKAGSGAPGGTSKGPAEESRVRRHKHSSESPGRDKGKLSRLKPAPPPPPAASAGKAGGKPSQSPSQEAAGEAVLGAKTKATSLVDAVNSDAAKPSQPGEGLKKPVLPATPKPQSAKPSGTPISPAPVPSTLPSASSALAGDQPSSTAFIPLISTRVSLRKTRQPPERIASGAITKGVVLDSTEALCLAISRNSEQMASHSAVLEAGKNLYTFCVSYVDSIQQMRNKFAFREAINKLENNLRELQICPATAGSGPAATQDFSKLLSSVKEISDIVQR
Sequence of KDR (P35968 20-1356): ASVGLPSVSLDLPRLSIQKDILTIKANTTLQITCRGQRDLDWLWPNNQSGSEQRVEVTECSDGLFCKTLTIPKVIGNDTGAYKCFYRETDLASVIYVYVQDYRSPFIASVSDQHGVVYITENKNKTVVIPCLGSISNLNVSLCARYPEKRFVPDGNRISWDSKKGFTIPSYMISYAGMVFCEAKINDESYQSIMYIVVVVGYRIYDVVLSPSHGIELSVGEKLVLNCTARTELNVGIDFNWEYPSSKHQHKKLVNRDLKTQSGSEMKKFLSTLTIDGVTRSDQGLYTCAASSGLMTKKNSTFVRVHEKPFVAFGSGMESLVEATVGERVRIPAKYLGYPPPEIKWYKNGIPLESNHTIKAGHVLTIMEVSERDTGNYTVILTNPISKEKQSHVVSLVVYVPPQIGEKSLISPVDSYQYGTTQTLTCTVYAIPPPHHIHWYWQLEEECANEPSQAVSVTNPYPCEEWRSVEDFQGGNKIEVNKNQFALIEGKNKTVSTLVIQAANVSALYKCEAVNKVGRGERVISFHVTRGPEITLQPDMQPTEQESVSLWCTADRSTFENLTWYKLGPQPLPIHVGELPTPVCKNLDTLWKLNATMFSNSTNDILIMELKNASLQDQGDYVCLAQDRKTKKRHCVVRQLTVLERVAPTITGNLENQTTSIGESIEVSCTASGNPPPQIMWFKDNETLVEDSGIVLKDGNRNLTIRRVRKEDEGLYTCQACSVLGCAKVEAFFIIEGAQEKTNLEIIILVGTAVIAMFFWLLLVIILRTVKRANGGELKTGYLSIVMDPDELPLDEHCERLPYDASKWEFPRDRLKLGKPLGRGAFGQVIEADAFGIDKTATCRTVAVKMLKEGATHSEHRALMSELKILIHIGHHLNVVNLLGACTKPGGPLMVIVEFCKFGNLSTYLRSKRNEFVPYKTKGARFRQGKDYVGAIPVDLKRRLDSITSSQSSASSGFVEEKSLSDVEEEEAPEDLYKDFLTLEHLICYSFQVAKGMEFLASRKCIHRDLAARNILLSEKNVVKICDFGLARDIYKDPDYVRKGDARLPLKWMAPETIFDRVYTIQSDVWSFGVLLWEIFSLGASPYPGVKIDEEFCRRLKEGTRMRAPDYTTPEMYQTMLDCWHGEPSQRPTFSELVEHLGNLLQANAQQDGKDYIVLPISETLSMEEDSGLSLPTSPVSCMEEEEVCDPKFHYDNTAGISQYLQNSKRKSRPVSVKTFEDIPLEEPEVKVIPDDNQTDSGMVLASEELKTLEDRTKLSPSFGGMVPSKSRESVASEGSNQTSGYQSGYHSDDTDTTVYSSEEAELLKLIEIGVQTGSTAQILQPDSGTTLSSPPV

Turning to `CC[C@@H]1C(=O)N(C)c2cnc(-n3ccnc3-c3cscn3)nc2N1C1CCCC1` [Example 68, (R)-8-cyclopentyl-7-ethyl-5-methyl-2-(2-(thiazol-4-yl)-1H-imidazol-1-yl)-7,8-dihydropteridin-6(5H)-one], the IC50 is below 1000 nM in assay [1] (setting [9]); below 1000 nM in assay [2] (GST-PLK2, 60 min reaction); below 1000 nM in assay [3] (GST-PLK1, 60 min reaction). Also, the “activity against PLK1 in kinase panel” value in assay [4] is given as “potent”. In addition, the “activity against PLK2 in kinase panel” value in assay [5] is given as “potent”.
`CC[C@@H]1C(=O)N(C)c2cnc(-n3ccnc3-c3ccccc3)nc2N1C1CCCC1` [Example 26, (R)-8-cyclopentyl-7-ethyl-5-methyl-2-(2-phenyl-1H-imidazol-1-yl)-7,8-dihydropteridin-6(5H)-one]: the “activity against PLK2 in kinase panel” value in assay [5] was “potent”.
For the molecule `CC[C@@]12CCCN1c1nc(-n3ccnc3-c3ccccc3)ncc1N(C)C2=O` [Example 76, (S)-6a-ethyl-5-methyl-2-(2-phenyl-1H-imidazol-1-yl)-6a,7,8,9-tetrahydropyrrolo[2,1-h]pteridin-6(5H)-one], in assay [4], the “activity against PLK1 in kinase panel” value was “potent”. Moreover, the “activity against PLK2 in kinase panel” value in assay [5] is recorded as “potent”.
For `CC[C@@H]1C(=O)N(C)c2cnc(-n3ccnc3-c3cccc(F)c3)nc2N1C1CCOC1` (stereo partly drawn) [Example 192, (7R)-7-ethyl-2-(2-(3-fluorophenyl)-1H-imidazol-1-yl)-5-methyl-8-(tetrahydrofuran-3-yl)-7,8-dihydropteridin-6(5H)-one], the concentration for half-maximal inhibition (IC50) was 1000 to 10000 nM in assay [1] (setting [9]); below 1000 nM in assay [2] (GST-PLK2, 60 min reaction); below 1000 nM in assay [3] (GST-PLK1, 60 min reaction). The inhibition at 10 µM in assay [6] and in assay [8] was above 80% in each case. Moreover, the “inhibition of kinases in panel of over 300” value in assay [7] is reported as “below 40%”. Besides, the “activity against PLK1 in kinase panel” value in assay [4] is recorded as “potent”. For the same molecule, the “activity against PLK2 in kinase panel” value in assay [5] is on record as “potent”.
For `CC[C@@H]1C(=O)N(C)c2cnc(-c3cn[nH]c3-c3nccs3)nc2N1c1ccc(Cl)cc1` [Example 382, (R)-8-(4-chlorophenyl)-7-ethyl-5-methyl-2-(5-(thiazol-2-yl)-1H-pyrazol-4-yl)-7,8-dihydropteridin-6(5H)-one], the half-maximal inhibitory concentration (IC50) in assay [1] (GST-PLK3, read-out: Plk3 IC50) is below 1000 nM; in assay [2] (GST-PLK2) it was below 1000 nM; in assay [3] (GST-PLK1) it was below 1000 nM. The “relative PLK2 activity of the enantiomers” value in assay [2] (compared with the opposite enantiomer) is reported as “more active compound”.
On to `CC[C@@]12CCCN1c1nc(-n3ccnc3-c3cnc4ccccc4c3)ncc1N(C)C2=O` [Example 241, (S)-6a-ethyl-5-methyl-2-(2-(quinolin-3-yl)-1H-imidazol-1-yl)-6a,7,8,9-tetrahydropyrrolo[2,1-h]pteridin-6(5H)-one], for which the IC50 in assay [1] (setting [9]) was above 50000 nM; in assay [2] (GST-PLK2, 60 min reaction), below 1000 nM; in assay [3] (GST-PLK1, 60 min reaction), 10000 to 50000 nM.
Taken in the same sequence, the figures for `CC[C@@H]1C(=O)N(C)c2cnc(-c3cn[nH]c3-c3nccs3)nc2N1C1CC(F)(F)C1` [Example 353, (R)-8-(3,3-difluorocyclobutyl)-7-ethyl-5-methyl-2-(5-(thiazol-2-yl)-1H-pyrazol-4-yl)-7,8-dihydropteridin-6(5H)-one] were 1000 to 10000 nM, below 1000 nM and 1000 to 10000 nM.
Taken in the same sequence, the figures for `CC[C@@H]1C(=O)N(C)c2cnc(-n3ccnc3-c3cccc(Cl)c3)nc2N1C1CCOC1` (stereo partly drawn) [Example 211, (7R)-2-(2-(3-chlorophenyl)-1H-imidazol-1-yl)-7-ethyl-5-methyl-8-(tetrahydrofuran-3-yl)-7,8-dihydropteridin-6(5H)-one] were 1000 to 10000 nM, below 1000 nM and below 1000 nM.
Taken in the same sequence, the figures for `CC[C@@H]1C(=O)N(C)c2cnc(-c3ccncc3NS(C)(=O)=O)nc2N1C1CCCC1` [Example 116, (R)—N-(4-(8-cyclopentyl-7-ethyl-5-methyl-6-oxo-5,6,7,8-tetrahydropteridin-2-yl)pyridin-3-yl)methanesulfonamide] were above 50000 nM, below 1000 nM and 1000 to 10000 nM.
As for `CC[C@@H]1C(=O)N(C)c2cnc(-c3ccncc3N)nc2N1C(C)C` [Example 93, (R)-2-(3-aminopyridin-4-yl)-7-ethyl-8-isopropyl-5-methyl-7,8-dihydropteridin-6(5H)-one], the IC50 was above 50000 nM in assay [1] (setting [9]); below 1000 nM in assay [2] (GST-PLK2, 60 min reaction); 1000 to 10000 nM in assay [3] (GST-PLK1, 60 min reaction).
